Patent publication US8536307B2, “Anticalins” (Pieris AG, priority 1997, dated 2013)

What was measured:
[1] = target: T1, anticalin FluA, mutein of Pieris brassicae bilin-binding protein (Bbp): Asn34Ser, Ser35Pro, Val36Asn, Glu37Gly, Asn58Arg, His60Asp, Ile69Met, Leu88Arg, Tyr90Val (Pieris brassicae, UniProt P09464, E111K/E52G/F142H/H75D/I84M/K102S/K110R/K131R/K150M/L103R/N112T/N16D/N36Q/N49S/N73R/Q140W/S50P/V108Y/V51N/Y105V/Y129S); details: fluorescence titration, excitation 280 nm, emission 340 nm, 1 μM anticalin, PBS with 1 mM EDTA, pH 7.4, 25° C.
T1 sequence (P09464 other isoform, or with tags, fused parts or gaps with the stated changes): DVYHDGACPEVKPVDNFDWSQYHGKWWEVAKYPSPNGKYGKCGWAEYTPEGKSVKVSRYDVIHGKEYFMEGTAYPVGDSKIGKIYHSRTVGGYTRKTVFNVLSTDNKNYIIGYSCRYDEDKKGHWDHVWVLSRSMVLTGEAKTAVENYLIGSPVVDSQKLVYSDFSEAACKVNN

[2] = target: anticalin FluB, mutein of Pieris brassicae bilin-binding protein (Bbp): Asn34Gln, Ser35His, Val36Trp, Glu37Asp, Asn58Arg, His60Arg, Ile69His, Glu70Lys, Leu88Val (Pieris brassicae, UniProt P09464, E52D/E85K/F142H/H75R/I84H/K102S/K110R/K131R/K150M/L103V/N112G/N16D/N36Q/N49Q/N73R/Q140W/S50H/V108R/V51W/Y105R/Y129R); details: fluorescence titration, excitation 280 nm, emission 340 nm, 1 μM anticalin, PBS with 1 mM EDTA, pH 7.4, 25° C.
UniProt P09464, sequence (P09464 other isoform, or with tags, fused parts or gaps with the stated changes): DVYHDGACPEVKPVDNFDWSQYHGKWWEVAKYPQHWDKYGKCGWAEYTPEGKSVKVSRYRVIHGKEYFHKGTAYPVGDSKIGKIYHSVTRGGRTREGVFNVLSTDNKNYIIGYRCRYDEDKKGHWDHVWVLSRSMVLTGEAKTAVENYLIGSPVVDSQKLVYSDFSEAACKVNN

[3] = target: T1, anticalin FluA, mutein of Pieris brassicae bilin-binding protein (Bbp): Asn34Ser, Ser35Pro, Val36Asn, Glu37Gly, Asn58Arg, His60Asp, Ile69Met, Leu88Arg, Tyr90Val; details: fluorescein 1 μM, excitation 490 nm, emission 512 nm, PBS with 1 mM EDTA, pH 7.4, 25° C.
[4] = target: recombinant Pieris brassicae bilin-binding protein (Bbp), parent (Pieris brassicae, UniProt P09464, K102S/K150M/N16D/N36Q); details: control experiment corresponding to that with FluA, excitation 490 nm, emission 512 nm
recombinant Pieris brassicae bilin-binding protein (Bbp), parent, sequence (P09464 other isoform, or with tags, fused parts or gaps K102S/K150M/N16D/N36Q): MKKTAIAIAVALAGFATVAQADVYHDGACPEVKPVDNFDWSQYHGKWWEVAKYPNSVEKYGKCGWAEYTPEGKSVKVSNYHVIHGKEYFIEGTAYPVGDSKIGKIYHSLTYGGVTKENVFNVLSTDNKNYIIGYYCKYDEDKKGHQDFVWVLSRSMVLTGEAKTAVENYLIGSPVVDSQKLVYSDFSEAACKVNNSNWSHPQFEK

| Compound | Dissociation constant (Kd) [1] [nM] | Dissociation constant (Kd) [2] [nM] | Quenching of the fluorescence intensity of fluorescein in the complex [3] [%] | Quenching of the fluorescence of fluorescein [4] |
| --- | --- | --- | --- | --- |
| Nc1ccc2c(c1)C(=O)OC21c2ccc(O)cc2Oc2cc(O)ccc21 [4-Aminofluorescein, 4-amino-fluorescein] | 224 ± 6 | 2840 ± 300 |  |  |
| O=C(O)CCCC(=O)Nc1ccc2c(c1)C(=O)OC21c2ccc(O)cc2Oc2cc(O)ccc21 [4-Glutarylamidofluorescein, 4-glutarylamido-fluorescein] | 601 ± 16 | 4700 ± 510 |  |  |
| O=C1OC2(c3ccc(O)cc3Oc3cc(O)ccc32)c2ccccc21 [Fluorescein, fluorescein] | 118 ± 14 | 5730 ± 860 | 99.7±0.3 | no comparable fluorescence quenching was found |
